Test results taken from article PMC5908784, “Extracellular loops 2 and 3 of the calcitonin receptor selectively modify agonist binding and efficacy” (Biochemical Pharmacology, 2018).
Where a chain is given by its changes, count along the chain named. Where a SMILES comes first, the peptide text is derived from it. Bridges are numbered along the chain shown (N, C = ends).

Legend:
Test in all cases: Heterologous whole cell competition binding
Conditions in all cases: heterologous competition of 125I-sCT(8-32), whole cells, mean ± S.E.M., SEM
[1] = target: T1, hCTR F359A (Homo sapiens, UniProt P30988, F359A)
T1 construct: expressed in transfected cells
T1 sequence (P30988 25-474 F359A): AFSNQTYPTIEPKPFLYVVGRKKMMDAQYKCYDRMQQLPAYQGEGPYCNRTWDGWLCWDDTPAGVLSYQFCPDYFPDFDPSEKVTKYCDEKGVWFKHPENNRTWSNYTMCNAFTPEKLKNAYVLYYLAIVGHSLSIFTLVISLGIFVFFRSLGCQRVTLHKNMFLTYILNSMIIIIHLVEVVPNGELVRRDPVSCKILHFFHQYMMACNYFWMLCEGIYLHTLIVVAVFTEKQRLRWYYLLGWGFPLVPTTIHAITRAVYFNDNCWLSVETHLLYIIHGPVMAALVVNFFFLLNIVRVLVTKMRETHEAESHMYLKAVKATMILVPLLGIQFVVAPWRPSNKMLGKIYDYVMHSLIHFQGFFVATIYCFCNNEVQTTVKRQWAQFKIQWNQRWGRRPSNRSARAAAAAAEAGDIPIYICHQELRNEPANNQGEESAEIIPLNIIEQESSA
Method: (§1) Following overnight incubation non-bound ligand was removed and radioactivity was determined using a gamma counter.
(§2) Data were corrected for radioligand occupancy using the Cheng-Prusoff equation in Prism; as such data are reported as pKi. Emax and EC50 were estimated from concentration-response curves using with a 3-parameter logistic equation in Prism (v7). These values are a composite of functional affinity, efficacy and stimulus response coupling. […] Significance was accepted at P < 0.05.

[2] = target: T2, hCTR H296A (Homo sapiens, UniProt P30988, H296A)
T2 construct: c-Myc (N); expressed in transfected cells
T2 sequence (P30988 25-474 H296A): T1 sequence (P30988 25-474 F359A) with H272A, A335F
Method: as §1, §2

[3] = target: T3, hCTR R281A (Homo sapiens, UniProt P30988, R281A)
T3 construct: expressed in transfected cells
T3 sequence (P30988 25-474 R281A): T1 sequence (P30988 25-474 F359A) with R257A, A335F
Method: as §1, §2

[4] = target: T4, hCTR V357A (Homo sapiens, UniProt P30988, V357A)
T4 construct: c-Myc (N); expressed in transfected cells
T4 sequence (P30988 25-474 V357A): T1 sequence (P30988 25-474 F359A) with V333A, A335F
Method: as §1, §2

[5] = target: T5, hCTR Y374A (Homo sapiens, UniProt P30988, Y374A)
T5 construct: c-Myc (N); expressed in transfected cells
T5 sequence (P30988 25-474 Y374A): T1 sequence (P30988 25-474 F359A) with A335F, Y350A
Method: as §1, §2

In the case of `CSCC[C@H](NC(=O)CNC(=O)[C@H](CO)NC(=O)[C@H](Cc1ccccc1)NC(=O)[C@H](CCCNC(=N)N)NC(=O)[C@H](Cc1c[nH]cn1)NC(=O)[C@H](Cc1ccccc1)NC(=O)[C@H](CC(N)=O)NC(=O)[C@H](CC(N)=O)NC(=O)[C@H](CC(C)C)NC(=O)[C@H](CC(N)=O)NC(=O)[C@H](CCCNC(=N)N)NC(=O)[C@H](Cc1c[nH]c2ccccc12)NC(=O)[C@H](Cc1ccc(O)cc1)NC(=O)[C@H](C)NC(=O)[C@H](CO)NC(=O)[C@H](CC(C)C)NC(=O)[C@@H](NC(=O)[C@@H]1CSSC[C@H](N)C(=O)N[C@@H](CO)C(=O)N[C@@H](CC(N)=O)C(=O)N[C@@H](CC(C)C)C(=O)N[C@@H](CO)C(=O)N[C@@H]([C@@H](C)O)C(=O)N1)C(C)C)C(=O)NCC(=O)N[C@@H](Cc1ccccc1)C(=O)NCC(=O)N1CCC[C@H]1C(=O)N[C@@H](CCC(=O)O)C(=O)N[C@H](C(=O)N1CCC[C@H]1C(N)=O)[C@@H](C)O` [pCT] (H-CSNLSTCVLSAYWRNLNNFHRFSGMGFGPETP-NH2; disulfide 1-7), the Ki [1] is reported as 0.0741 µM, the Ki [2] is reported as 0.00851 µM and the Ki [3] is reported as 0.0661 µM. It also gave a Ki [4] of 0.0129 µM and a Ki [5] of 0.00589 µM.
